US20080033026A1, “Antimicrobial compositions, methods and systems” (priority 2006, published 2008)

Legend:
Assay in all cases: Time-kill determination
Type in all cases: cell-based
[1] = tested on: Pseudomonas aeruginosa (ATCC 15442)
Procedure: (§1) The assessment of efficacy of 9-decenoic acid against a spectrum of microorganisms was determined using the American Society for Testing and Materials (ASTM) procedure entitled “Standard Test Method for the Assessment of Microbiocidal Activity of Test Materials Using a Time-Kill Procedure,” October 1998. This procedure incorporates the recommendations described in the “Manual of Clinical Microbiology,” 5th ed., edited by A. B. Balows et al., ASM, Washington, and is directed by the Federal Register, June 1994.
(§2) Challenge organisms were prepared as follows. Cultures of the following organisms were obtained: Staphylococcus aureus (ATCC 6538), Pseudomonas aeruginosa (ATCC 15442), Staphylococcus epidermidis (ATCC 12228), Klebsiella pneumoniae (ATCC 4352), Escherichia coli 0157:H7 (ATCC 43895) and Candida albicans (ATCC 10231). The stock cultures were transferred to sterile tubes and sterile tryptic soy broth (TSB) was added to the cultures. The mixture was incubated for 18-24 hours at 37° C. (±2° C.). A portion of this culture was then transferred onto TSA plates and incubated for 18-24 hours at 37° C. (±2° C.). The plates were removed from incubation and the bacterial growth was washed from the agar surface using Butterfield's Phosphate Buffered Dilution Water (PBDW).
(§3) The bacterial suspension was adjusted to contain approximately 10^8 Colony Forming Units (CFU) per ml with PBDW. The concentration was adjusted to an optical density (OD) of 0.4-0.5 (versus a PBDW blank) at 620 nm in a UV-Vis spectrophotometer, and this optical density gave approximately 10^8 colony forming units per milliliter (cfu/ml). The standardized suspension was stored under appropriate conditions until it was used as the challenge inoculum.
(§4) Concentrated 9-decenoic acid (97%) was diluted in filter sterilized isopropanol to yield a 25,000 ppm stock solution. Subsequent dilutions to the 9-decenoic acid stock solutions were made with sterile Deionized Water (DI) to achieve concentrations of 0.1%, 0.05%, 0.01% and 0.001%. The pH was determined for each dilution; pH values ranged from 4.4-4.1. Additionally, 9-decenoic acid stock solution was adjusted to pH 7 with 1 N NaOH and serially diluted with sterile DI to achieve concentrations of 1%, 0.5%, 0.2%, 0.1%, 0.05% and 0.0025%. In addition, 9-decenoic acid stock solution was combined with Triclosan™ (obtained from Ciba Specialty Chemical Corporation, under the tradename Irgasan DP 300™) in various ratios, as indicated in Table 8. The pH of the combined solution was 7.
(§5) Compliant with the ASTM procedure cited, for each challenge microorganism a 9.9 ml aliquot of the prepared 9-decenoic acid suspension was added to a sterile tube. A 0.1 ml aliquot of the standardized inoculum was added to the 9-decenoic acid solution representing the start of the test exposure. The inoculated 9-decenoic acid solution was immediately mixed thoroughly. The inoculated suspension was held at room temperature for 0.5, 2, 5, 7 and 10-minute exposure times for tests run at pH level of approximately 4. The pH 7 tests were held at room temperature for 0.5 and 2 minutes.
(§6) At each exposure sample time, a 1.0 ml aliquot of the inoculated 9-decenoic acid suspension was transferred to 9.0 ml of D/E Neutralizing Broth. Additional ten-fold serial dilutions were made in PBDW and plated in duplicate on TSA. All plates were incubated for 48 hours at 37° C. (±2° C.) and visually examined for growth. The plates were enumerated, recorded and log kill determined for each time point.
(§7) The following study controls were conducted: culture purity, neutralizer sterility, initial suspension population, test population, neutralization verification and a negative control using isopropanol. Culture purity was verified by performing a streak plate for isolated colonies of each culture used. All cultures were determined to be pure based on consistent colony morphology typical for the test organism. The neutralizer sterility was confirmed by no growth in an incubated sample. […]

[2] = tested on: Staphylococcus epidermidis (ATCC 12228)
Procedure: as §1, §2, §3, §4, §5, §6, §7

[3] = tested on: Klebsiella pneumoniae (ATCC 4352)
Procedure: as §1, §2, §3, §4, §5, §6, §7

[4] = 0.01% 9-decenoic acid, pH 4.4, exposure 0.5 min
[5] = 0.01% 9-decenoic acid, pH 4.4, exposure 2 min
[6] = 0.01% 9-decenoic acid, pH 4.4, exposure 5 min
[7] = 0.01% 9-decenoic acid, pH 4.4, exposure 7 min
[8] = 0.01% 9-decenoic acid, pH 4.4, exposure 10 min
[9] = 0.05% 9-decenoic acid, pH 4.1, exposure 0.5 min
[10] = 0.05% 9-decenoic acid, pH 4.1, exposure 2 min
[11] = 0.05% 9-decenoic acid, pH 4.1, exposure 5 min
[12] = 0.05% 9-decenoic acid, pH 4.1, exposure 7 min
[13] = 0.05% 9-decenoic acid, pH 4.1, exposure 10 min
[14] = 0.1% 9-decenoic acid, pH 4.1, exposure 0.5 min
[15] = 0.1% 9-decenoic acid, pH 4.1, exposure 2 min
[16] = 0.1% 9-decenoic acid, pH 4.1, exposure 5 min
[17] = 0.1% 9-decenoic acid, pH 4.1, exposure 7 min
[18] = 0.1% 9-decenoic acid, pH 4.1, exposure 10 min

Measured: Log reduction

C=CCCCCCCCC(=O)O [9-decenoic acid]
1.4 log: [3]; [4]
>6.3 log: [3]; [5] | [3]; [6] | [3]; [7] | [3]; [8] | [3]; [9] | [3]; [10] | [3]; [11] | [3]; [12] | [3]; [13] | [3]; [14] | [3]; [15] | [3]; [16] | [3]; [17] | [3]; [18]
>5.7 log: [2]; [4] | [2]; [5] | [2]; [6] | [2]; [7] | [2]; [8] | [2]; [9] | [2]; [10] | [2]; [11] | [2]; [12] | [2]; [13] | [2]; [14] | [2]; [15] | [2]; [16] | [2]; [17] | [2]; [18]
>6.1 log: [1]; [4] | [1]; [5] | [1]; [6] | [1]; [7] | [1]; [8] | [1]; [9] | [1]; [10] | [1]; [11] | [1]; [12] | [1]; [13] | [1]; [14] | [1]; [15] | [1]; [16] | [1]; [17] | [1]; [18]
